# Reference: PubChem BioAssay (NCI)
#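 Where inhibition never reached the appropriate level, the endpoint shown equals the highest concentration tested. Otherwise, values were interpolated linearly from a five-concentration, 48-hour dose response in 96-well plates. TGI denotes the concentration required for complete inhibition of growth.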
# Assays:
# Test in all cases: NCI tumour cell line growth inhibition, 48 h
# MDA-N = tested on: MDA-N
# NCI-H460 lung = tested on: NCI-H460 lung
# RXF 393 renal = tested on: RXF 393 renal
# SK-MEL-5 melanoma = tested on: SK-MEL-5 melanoma
# OVCAR-8 ovarian = tested on: OVCAR-8 ovarian
# SR leukemia = tested on: SR leukemia
# K-562 leukemia = tested on: K-562 leukemia
# SF-268 CNS = tested on: SF-268 CNS
# SNB-19 CNS = tested on: SNB-19 CNS
# NCI-H522 lung = tested on: NCI-H522 lung
# MOLT-4 leukemia = tested on: MOLT-4 leukemia
# OVCAR-3 ovarian = tested on: OVCAR-3 ovarian
# SK-OV-3 ovarian = tested on: SK-OV-3 ovarian
# NCI/ADR-RES ovarian = tested on: NCI/ADR-RES ovarian
# IGROV1 ovarian = tested on: IGROV1 ovarian
# HOP-92 NSCLC = tested on: HOP-92 NSCLC
# KM12 colon = tested on: KM12 colon
# SF-295 CNS = tested on: SF-295 CNS
# MDA-MB-435 = tested on: MDA-MB-435
# A498 renal = tested on: A498 renal
# MALME-3M melanoma = tested on: MALME-3M melanoma
# HOP-62 NSCLC = tested on: HOP-62 NSCLC
# U251 CNS = tested on: U251 CNS
# T-47D breast = tested on: T-47D breast
# SF-539 CNS = tested on: SF-539 CNS
# UO-31 renal = tested on: UO-31 renal
# HT29 colon = tested on: HT29 colon
# CAKI-1 renal = tested on: CAKI-1 renal
# NCI-H23 lung = tested on: NCI-H23 lung
# UACC-257 melanoma = tested on: UACC-257 melanoma
# PC-3 prostate = tested on: PC-3 prostate
# M14 melanoma = tested on: M14 melanoma
# OVCAR-4 ovarian = tested on: OVCAR-4 ovarian
# SNB-75 CNS = tested on: SNB-75 CNS
# BT-549 breast = tested on: BT-549 breast
# MCF7 breast = tested on: MCF7 breast
# MDA-MB-231 breast = tested on: MDA-MB-231 breast
# 786-0 renal = tested on: 786-0 renal
# CCRF-CEM leukemia = tested on: CCRF-CEM leukemia
# HCT-15 colon = tested on: HCT-15 colon
# SK-MEL-28 melanoma = tested on: SK-MEL-28 melanoma
# NCI-H226 lung = tested on: NCI-H226 lung
# COLO 205 colon = tested on: COLO 205 colon
# ACHN renal = tested on: ACHN renal
# A549 NSCLC = tested on: A549 NSCLC
# LOX IMVI melanoma = tested on: LOX IMVI melanoma
# SN12C renal = tested on: SN12C renal
# TK-10 renal = tested on: TK-10 renal
# SK-MEL-2 melanoma = tested on: SK-MEL-2 melanoma
# HCT-116 colon = tested on: HCT-116 colon
# RPMI-8226 leukemia = tested on: RPMI-8226 leukemia
# DU-145 prostate = tested on: DU-145 prostate
# OVCAR-5 ovarian = tested on: OVCAR-5 ovarian
# HL-60(TB) leukemia = tested on: HL-60(TB) leukemia
# HS 578T breast = tested on: HS 578T breast
# EKVX NSCLC = tested on: EKVX NSCLC
# UACC-62 melanoma = tested on: UACC-62 melanoma
# SW-620 colon = tested on: SW-620 colon
smiles,measurement,setting,value
C(=N\c1nc2cc3sc(/N=C/c4cccs4)nc3cc2s1)/c1cccs1,TGI,MDA-N,> 100 µM
same,TGI,NCI-H460 lung,> 100 µM
same,TGI,RXF 393 renal,> 100 µM
same,TGI,SK-MEL-5 melanoma,> 100 µM
same,TGI,OVCAR-8 ovarian,> 100 µM
same,TGI,SR leukemia,> 100 µM
same,TGI,K-562 leukemia,> 100 µM
same,TGI,SF-268 CNS,> 100 µM
same,TGI,SNB-19 CNS,> 100 µM
same,TGI,NCI-H522 lung,> 100 µM
same,TGI,MOLT-4 leukemia,> 100 µM
same,TGI,OVCAR-3 ovarian,> 100 µM
same,TGI,SK-OV-3 ovarian,> 100 µM
same,TGI,NCI/ADR-RES ovarian,> 100 µM
same,TGI,IGROV1 ovarian,> 100 µM
same,TGI,HOP-92 NSCLC,> 100 µM
same,TGI,KM12 colon,> 100 µM
same,TGI,SF-295 CNS,> 100 µM
same,TGI,MDA-MB-435,> 100 µM
same,TGI,A498 renal,> 100 µM
same,TGI,MALME-3M melanoma,> 100 µM
same,TGI,HOP-62 NSCLC,> 100 µM
same,TGI,U251 CNS,> 100 µM
same,TGI,T-47D breast,> 100 µM
same,TGI,SF-539 CNS,> 100 µM
same,TGI,UO-31 renal,> 100 µM
same,TGI,HT29 colon,> 100 µM
same,TGI,CAKI-1 renal,> 100 µM
same,TGI,NCI-H23 lung,> 100 µM
same,TGI,UACC-257 melanoma,> 100 µM
same,TGI,PC-3 prostate,> 100 µM
same,TGI,M14 melanoma,> 100 µM
same,TGI,OVCAR-4 ovarian,> 100 µM
same,TGI,SNB-75 CNS,> 100 µM
same,TGI,BT-549 breast,> 100 µM
same,TGI,MCF7 breast,> 100 µM
same,TGI,MDA-MB-231 breast,> 100 µM
same,TGI,786-0 renal,> 100 µM
same,TGI,CCRF-CEM leukemia,> 100 µM
same,TGI,HCT-15 colon,> 100 µM
same,TGI,SK-MEL-28 melanoma,> 100 µM
same,TGI,NCI-H226 lung,88.1 µM
same,TGI,COLO 205 colon,12.4 µM
same,TGI,ACHN renal,> 100 µM
same,TGI,A549 NSCLC,> 100 µM
same,TGI,LOX IMVI melanoma,> 100 µM
same,TGI,SN12C renal,> 100 µM
same,TGI,TK-10 renal,> 100 µM
same,TGI,SK-MEL-2 melanoma,> 100 µM
same,TGI,HCT-116 colon,> 100 µM
same,TGI,RPMI-8226 leukemia,> 100 µM
same,TGI,DU-145 prostate,> 100 µM
same,TGI,OVCAR-5 ovarian,> 100 µM
same,TGI,HL-60(TB) leukemia,> 100 µM
same,TGI,HS 578T breast,> 100 µM
same,TGI,EKVX NSCLC,> 100 µM
NC(=S)N/N=C/c1c[nH]c2ccccc12,TGI,MDA-N,> 100 µM
same,TGI,NCI-H460 lung,> 100 µM
same,TGI,RXF 393 renal,> 100 µM
same,TGI,SK-MEL-5 melanoma,> 100 µM
same,TGI,OVCAR-8 ovarian,> 100 µM
same,TGI,SR leukemia,> 100 µM
same,TGI,K-562 leukemia,> 100 µM
same,TGI,SF-268 CNS,> 100 µM
same,TGI,SNB-19 CNS,> 100 µM
same,TGI,NCI-H522 lung,> 100 µM
same,TGI,MOLT-4 leukemia,> 100 µM
same,TGI,OVCAR-3 ovarian,> 100 µM
same,TGI,SK-OV-3 ovarian,> 100 µM
same,TGI,NCI/ADR-RES ovarian,> 100 µM
same,TGI,IGROV1 ovarian,> 100 µM
same,TGI,HOP-92 NSCLC,> 100 µM
same,TGI,KM12 colon,> 100 µM
same,TGI,SF-295 CNS,> 100 µM
same,TGI,MDA-MB-435,> 100 µM
same,TGI,A498 renal,> 100 µM
same,TGI,MALME-3M melanoma,> 100 µM
same,TGI,HOP-62 NSCLC,> 100 µM
same,TGI,U251 CNS,> 100 µM
same,TGI,T-47D breast,> 100 µM
same,TGI,SF-539 CNS,> 100 µM
same,TGI,UO-31 renal,> 100 µM
same,TGI,HT29 colon,> 100 µM
same,TGI,CAKI-1 renal,> 100 µM
same,TGI,NCI-H23 lung,> 100 µM
same,TGI,UACC-257 melanoma,> 100 µM
same,TGI,PC-3 prostate,> 100 µM
same,TGI,M14 melanoma,> 100 µM
same,TGI,OVCAR-4 ovarian,> 100 µM
same,TGI,SNB-75 CNS,> 100 µM
same,TGI,BT-549 breast,> 100 µM
same,TGI,MCF7 breast,> 100 µM
same,TGI,MDA-MB-231 breast,> 100 µM
same,TGI,786-0 renal,> 100 µM
same,TGI,CCRF-CEM leukemia,> 100 µM
same,TGI,UACC-62 melanoma,> 100 µM
same,TGI,HCT-15 colon,> 100 µM
same,TGI,SK-MEL-28 melanoma,> 100 µM
same,TGI,NCI-H226 lung,> 100 µM
same,TGI,COLO 205 colon,> 100 µM
same,TGI,ACHN renal,> 100 µM
same,TGI,A549 NSCLC,> 100 µM
same,TGI,LOX IMVI melanoma,> 100 µM
same,TGI,SN12C renal,> 100 µM
same,TGI,SW-620 colon,> 100 µM
same,TGI,TK-10 renal,> 100 µM
same,TGI,SK-MEL-2 melanoma,> 100 µM
same,TGI,HCT-116 colon,> 100 µM
same,TGI,RPMI-8226 leukemia,> 100 µM
same,TGI,DU-145 prostate,> 100 µM
same,TGI,OVCAR-5 ovarian,> 100 µM
same,TGI,HL-60(TB) leukemia,> 100 µM
same,TGI,HS 578T breast,> 100 µM
same,TGI,EKVX NSCLC,> 100 µM
Oc1c(CN2CCOCC2)ccc(CN2CCOCC2)c1O,TGI,MDA-N,> 100 µM
same,TGI,NCI-H460 lung,82.8 µM
same,TGI,RXF 393 renal,> 100 µM
same,TGI,SK-MEL-5 melanoma,67 µM
same,TGI,OVCAR-8 ovarian,> 100 µM
same,TGI,SR leukemia,> 100 µM
same,TGI,K-562 leukemia,> 100 µM
same,TGI,SF-268 CNS,> 100 µM
same,TGI,SNB-19 CNS,> 100 µM
same,TGI,NCI-H522 lung,> 100 µM
same,TGI,MOLT-4 leukemia,> 100 µM
same,TGI,OVCAR-3 ovarian,66.3 µM
same,TGI,SK-OV-3 ovarian,> 100 µM
same,TGI,NCI/ADR-RES ovarian,> 100 µM
same,TGI,IGROV1 ovarian,> 100 µM
same,TGI,HOP-92 NSCLC,> 100 µM
same,TGI,KM12 colon,> 100 µM
same,TGI,SF-295 CNS,96.3 µM
same,TGI,MDA-MB-435,> 100 µM
same,TGI,A498 renal,> 100 µM
same,TGI,MALME-3M melanoma,> 100 µM
same,TGI,HOP-62 NSCLC,> 100 µM
same,TGI,U251 CNS,> 100 µM
same,TGI,T-47D breast,> 100 µM
same,TGI,SF-539 CNS,> 100 µM
same,TGI,UO-31 renal,72.2 µM
same,TGI,HT29 colon,> 100 µM
same,TGI,CAKI-1 renal,> 100 µM
same,TGI,NCI-H23 lung,> 100 µM
same,TGI,UACC-257 melanoma,88.7 µM
same,TGI,PC-3 prostate,> 100 µM
same,TGI,M14 melanoma,84 µM
same,TGI,OVCAR-4 ovarian,> 100 µM
same,TGI,SNB-75 CNS,75.3 µM
same,TGI,BT-549 breast,> 100 µM
same,TGI,MCF7 breast,> 100 µM
same,TGI,MDA-MB-231 breast,> 100 µM
same,TGI,786-0 renal,> 100 µM
same,TGI,CCRF-CEM leukemia,12.9 µM
same,TGI,UACC-62 melanoma,61.2 µM
same,TGI,HCT-15 colon,> 100 µM
same,TGI,SK-MEL-28 melanoma,> 100 µM
same,TGI,NCI-H226 lung,88.9 µM
same,TGI,COLO 205 colon,> 100 µM
same,TGI,ACHN renal,> 100 µM
same,TGI,A549 NSCLC,> 100 µM
same,TGI,LOX IMVI melanoma,> 100 µM
same,TGI,SN12C renal,88.4 µM
same,TGI,SW-620 colon,> 100 µM
same,TGI,TK-10 renal,> 100 µM
same,TGI,SK-MEL-2 melanoma,94.6 µM
same,TGI,HCT-116 colon,> 100 µM
same,TGI,RPMI-8226 leukemia,> 100 µM
same,TGI,DU-145 prostate,83 µM
same,TGI,OVCAR-5 ovarian,> 100 µM
same,TGI,HL-60(TB) leukemia,27.2 µM
same,TGI,HS 578T breast,> 100 µM
same,TGI,EKVX NSCLC,> 100 µM
